# Measurements: patent US20140288056A1, “METHODS FOR NON-TOXIC TREATMENT FOR DRUG WITHDRAWAL” (DEMERX, INC., priority 2013, published 2014)
# How the values were obtained:
# [1] = Human pharmacokinetic study, single oral dose, fasting healthy volunteers; format: in vivo; settings: fasting, serum
# Description: In double blind studies, fasting healthy volunteers (6 per cohort) were treated once orally with a tablet of noribogaine HCl. In escalating cohorts, the volunteers received 3 mg, 10 mg, 30 mg or 60 mg noribogaine.
# [2] = tested on: dogs; assay: Acute oral toxicity/TK study in dogs; format: in vivo, dog
# [3] = Plasma toxicokinetics in dogs, 14 day repeat dose study; format: in vivo, dog
# Description: Noribogaine HCl was administered to groups of 4 male and 4 female dogs by single oral gavage daily for 14 days at doses of 0, 0.5, 1.0 and 5.0 mg/kg/day. An additional group of 4 male and 4 female dogs received either the vehicle control or 5.0 mg/kg/day for 14 days and were held for an additional 28 days after cessation of dosing to assess recovery from any potential drug-induced changes. The study was conducted under GLP guidelines and included comprehensive examinations of clinical signs, body weight, clinical pathology parameters, ophthalmologic examinations, ECG recordings and analyses of plasma for bioanalytical measurement of drug levels at appropriate intervals during the study. At the termination of the dosing phase and at the termination of the recovery phase, all dogs were subjected to a complete post-mortem examination including gross examination of major organs and histologic examination of an extensive list of tissues. Additional sections of brain were obtained from cerebrum, cerebellus, brain stem and spinal cord and examined histologically to evaluate potential effects on brain histopathology. In addition, these sections were examined with immunohistochemical stains for GFAP for evidence of gliosis and Calbindin for a more comprehensive examination of cerebellar Purkinje cells.
# [4] = tested on: cynomolgus monkey; assay: Single dose toxicity in cynomolgus monkeys, oral gavage; format: in vivo
# Description: The objective of the study was to determine the toxicity and toxicokinetic profile of noribogaine following oral (gavage) administration to the cynomolgus monkey. The test article was administered as follows in Table 1:
# Parameters monitored on the study included: mortality, clinical signs and body weights. Blood samples were collected for TK evaluation. […] The single dose maximum tolerated dose (MTD) was determined to be greater than 160 mg/kg based on the parameters monitored during the study.
# [5] = tested on: psychotomimetic effects; assay: Evaluation of psychotomimetic effects in an animal model; format: in vivo
# [6] = tested on: various animal species; assay: Pre-clinical toxicity studies in various animal species; format: in vivo
# Description: Given the signs of efficacy that noribogaine has shown, there is a need for a method to administer noribogaine in dosages that provide efficacy without leading to any significant deleterious clinical signs.
# [7] = tested on: drug-seeking behavior; assay: Animal studies in various addiction models; format: in vivo
# [8] = female dogs, Gr 2 0.5 mg/kg, D 1
# [9] = female dogs, Gr 2 0.5 mg/kg, D 14
# [10] = female dogs, Gr 3 1.0 mg/kg, D 1
# [11] = female dogs, Gr 3 1.0 mg/kg, D 14
# [12] = female dogs, Gr 4 5.0 mg/kg, D 1
# [13] = female dogs, Gr 4 5.0 mg/kg, D 14
# [14] = male dogs, Gr 2 0.5 mg/kg, D 14
# [15] = male dogs, Gr 3 1.0 mg/kg, D 14
# [16] = male dogs, Gr 4 5.0 mg/kg, D 14
smiles,measurement,setting,value
CC[C@H]1C[C@H]2C[C@H]3c4[nH]c5ccc(O)cc5c4CCN(C2)[C@@H]13 [noribogaine],mean AUC/24 hr,[1]; single dose 3 mg,3.1 ng/mL
same,mean Cmax,[1]; single dose 3 mg,5.2 ng/mL
same,mean AUC/24 hr,[1]; single dose 10 mg,10.6 ng/mL
same,mean Cmax,[1]; single dose 10 mg,14.5 ng/mL
same,mean AUC/24,[1]; single dose 30 mg,29.2 ng/mL
same,mean Cmax,[1]; single dose 30 mg,55.9 ng/mL
same,mean AUC/24,[1]; single dose 60 mg,61 ng/mL
same,mean Cmax,[1]; single dose 60 mg,116 ng/mL
same,Findings at the NOAEL dose,[2]; 5 mg/kg oral,only transient reduction in food consumption in one dog
same,Convulsions and other CNS-related clinical signs,[2]; 10 mg/kg oral,occurred
same,Onset of convulsions and CNS-related clinical signs after dosing,[2]; 10 mg/kg oral,20 min
same,Mortality,[2]; 5 (n=2) or 10 (n=2) mg/kg oral,no mortality occurred
same,NOAEL,[2]; single oral dose,5 mg/kg
same,AUC0-24 h,[3]; [8],40.4 ng·h/mL
same,AUC0-last,[3]; [8],31.5 ng·h/mL
same,AUC0-∞,[3]; [8],44.9 ng·h/mL
same,Cmax,[3]; [8],25.3 ng/mL
same,T1/2,[3]; [8],1.0 h
same,Tmax,[3]; [8],0.5 h
same,AUC0-24 h,[3]; [9],55.0 ng·h/mL
same,AUC0-last,[3]; [9],35.4 ng·h/mL
same,AUC0-∞,[3]; [9],45.7 ng·h/mL
same,Cmax,[3]; [9],29.8 ng/mL
same,T1/2,[3]; [9],1.1 h
same,Tmax,[3]; [9],1.0 h
same,AUC0-24 h,[3]; [10],176.2 ng·h/mL
same,AUC0-last,[3]; [10],148.9 ng·h/mL
same,AUC0-∞,[3]; [10],165.3 ng·h/mL
same,Cmax,[3]; [10],68.5 ng/mL
same,T1/2,[3]; [10],1.4 h
same,Tmax,[3]; [10],0.8 h
same,AUC0-24 h,[3]; [11],203.7 ng·h/mL
same,AUC0-last,[3]; [11],169.0 ng·h/mL
same,AUC0-∞,[3]; [11],197.0 ng·h/mL
same,Cmax,[3]; [11],74.1 ng/mL
same,T1/2,[3]; [11],1.6 h
same,Tmax,[3]; [11],0.5 h
same,AUC0-24 h,[3]; [12],3367.9 ng·h/mL
same,AUC0-last,[3]; [12],3367.9 ng·h/mL
same,AUC0-∞,[3]; [12],3425.7 ng·h/mL
same,Cmax,[3]; [12],691 ng/mL
same,T1/2,[3]; [12],4.3 h
same,Tmax,[3]; [12],0.6 h
same,AUC0-24 h,[3]; [13],5951.2 ng·h/mL
same,AUC0-last,[3]; [13],5951.2 ng·h/mL
same,AUC0-∞,[3]; [13],6283.2 ng·h/mL
same,Cmax,[3]; [13],683 ng/mL
same,T1/2,[3]; [13],5.7 h
same,Tmax,[3]; [13],0.6 h
same,AUC0-24 h,"[3]; male dogs, Gr 2 0.5 mg/kg, D 1",59.7 ng·h/mL
same,AUC0-last,"[3]; male dogs, Gr 2 0.5 mg/kg, D 1",46.6 ng·h/mL
same,AUC0-∞,"[3]; male dogs, Gr 2 0.5 mg/kg, D 1",67.8 ng·h/mL
same,Cmax,"[3]; male dogs, Gr 2 0.5 mg/kg, D 1",28.8 ng/mL
same,T1/2,"[3]; male dogs, Gr 2 0.5 mg/kg, D 1",1.3 h
same,Tmax,"[3]; male dogs, Gr 2 0.5 mg/kg, D 1",0.7 h
same,AUC0-24 h,[3]; [14],64.5 ng·h/mL
same,AUC0-last,[3]; [14],53.2 ng·h/mL
same,AUC0-∞,[3]; [14],68.2 ng·h/mL
same,Cmax,[3]; [14],29.4 ng/mL
same,T1/2,[3]; [14],1.3 h
same,Tmax,[3]; [14],0.7 h
same,AUC0-24 h,"[3]; male dogs, Gr 3 1.0 mg/kg, D 1",119.8 ng·h/mL
same,AUC0-last,"[3]; male dogs, Gr 3 1.0 mg/kg, D 1",102.5 ng·h/mL
same,AUC0-∞,"[3]; male dogs, Gr 3 1.0 mg/kg, D 1",120.8 ng·h/mL
same,Cmax,"[3]; male dogs, Gr 3 1.0 mg/kg, D 1",58.6 ng/mL
same,T1/2,"[3]; male dogs, Gr 3 1.0 mg/kg, D 1",1.2 h
same,Tmax,"[3]; male dogs, Gr 3 1.0 mg/kg, D 1",0.9 h
same,AUC0-24 h,[3]; [15],210.4 ng·h/mL
same,AUC0-last,[3]; [15],172.3 ng·h/mL
same,AUC0-∞,[3]; [15],195.7 ng·h/mL
same,Cmax,[3]; [15],67.6 ng/mL
same,T1/2,[3]; [15],1.8 h
same,Tmax,[3]; [15],0.8 h
same,AUC0-24 h,"[3]; male dogs, Gr 4 5.0 mg/kg, D 1",3515.0 ng·h/mL
same,AUC0-last,"[3]; male dogs, Gr 4 5.0 mg/kg, D 1",3515.0 ng·h/mL
same,AUC0-∞,"[3]; male dogs, Gr 4 5.0 mg/kg, D 1",3630.5 ng·h/mL
same,Cmax,"[3]; male dogs, Gr 4 5.0 mg/kg, D 1",693 ng/mL
same,T1/2,"[3]; male dogs, Gr 4 5.0 mg/kg, D 1",4.7 h
same,Tmax,"[3]; male dogs, Gr 4 5.0 mg/kg, D 1",0.6 h
same,AUC0-24 h,[3]; [16],6403.3 ng·h/mL
same,AUC0-last,[3]; [16],6403.3 ng·h/mL
same,AUC0-∞,[3]; [16],6961.4 ng·h/mL
same,Cmax,[3]; [16],716 ng/mL
same,T1/2,[3]; [16],6.5 h
same,Tmax,[3]; [16],0.9 h
same,Single dose maximum tolerated dose (MTD),[4],greater than 160 mg/kg
same,Mortality or treatment related clinical signs,[4]; doses up to and including 160 mg/kg,No mortality or treatment related clinical signs were noted
same,Psychotomimetic effects,[5],no activity
same,Toxic effects of high doses,[6],"convulsions and other CNS-related clinical signs, respiratory arrest and death"
same,Drug-seeking behavior,[7],significantly reduced
